# Assay results from patent EP4818177A1, “TRICYCLIC DERIVATIVE INHIBITOR, AND PREPARATION METHOD AND USE THEREFOR” (Shanghai Hansoh Biomedical Co., Ltd., priority 2023, dated 2025).
# pIC50: −log10 of the molar value.
# Legend:
# [1] = test system: MTAP Knockout HCT116 cells; experiment: Cell proliferation inhibition (CellTiter-Glo), MTAP knockout cells; type: cell-based; settings: for Selectivity: HCT116 versus MTAP Knockout HCT116; for pIC50: Homo sapiens, HCT-116, MTAP Knockout HCT116 cells, 72-240 hours incubation, CellTiter-Glo
# Excerpt: (§1) Test Example 2: Determination of the inhibitory effect of the compounds of the present invention on the proliferation activity of HCT116 and MTAP Knockout HCT116 cells.
# (§2) 1. Experimental objective: to determine the inhibitory effect of the compound on the proliferation activity of HCT116 wild-type and HCT116 MTAP knockout cells. 2. Experimental instruments: Centrifuge (Eppendorf 5810R); microplate reader (BioTek Synergy H1 or PerkinElmer Envision); pipette (Eppendorf or Rainin). 3. Experimental reagents: HCT116 and MTAP Knockout HCT116 cells were purchased from Nanjing Cobioer; Cell Titer-Glo was purchased from Promega (Cat. No. G7573); McCoy' 5A was purchased from Gibco (Cat. No. 12330031); FBS was purchased from Gibco (Cat. No. 10091148); PBS was purchased from Gibco (Cat. No. 10010023); trypsin was purchased from Gibco (Cat. No. 25200056); cell culture plates were purchased from Corning (Cat. No. 3610). 4. Experimental methods: HCT116 and MTAP Knockout HCT116 cells were cultured in McCoy'5A medium containing 10% FBS until an appropriate cell density was reached. The cells were then collected and adjusted to a suitable concentration using complete medium. The cell suspension was seeded into a 96-well plate at 90 µL per well and allowed to adhere overnight in a 37°C, 5% CO2 incubator. Compound solutions of various concentrations were prepared using DMSO and culture medium, with a vehicle control set. The compound solutions were added to the 96-well plate at 10 µL per well, and the plate was incubated in a 37°C, 5% CO2 incubator for an additional 72-240 hours. After incubation, CellTiter-Glo solution was added, and the mixture was mixed uniformly by shaking, followed by incubation in the dark for 10 to 30 minutes. Luminescence was measured using a Synergy H1 or Envision microplate reader. 5. Experimental data processing method: The inhibition rate was calculated using the luminescence signal values, and the concentrations along with the inhibition rates were subjected to non-linear regression curve fitting using Graphpad Prism software to obtain the IC50 values.
# [2] = test system: HCT116 wild-type cells; experiment: Cell proliferation inhibition (CellTiter-Glo), wild-type cells; type: cell-based; settings: Homo sapiens, HCT-116, HCT116 wild-type cells, 72-240 hours incubation
# Excerpt: as §1, §2
# [3] = target: T1, PRMT5/MEP50-MTA protein complex (Homo sapiens, UniProt O14744); experiment: Thermal shift assay: change in melting temperature of the PRMT5/MEP50-MTA protein complex; type: binding; settings: compound 8 µM, PRMT5/MEP50 2 µM, MTA 2 µM; Tm minus DMSO vehicle control
# T1 construct: purchased Viva Biotech
# Excerpt: Test Example 1: Determination of the ability of the compounds of the present invention to improve the thermal stability (melting temperature) of the PRMT5/MEP50-MTA protein complex.
# 1. Experimental objective: The objective of this test example is to determine the ability of the compound to improve the thermal stability of the PRMT5/MEP50-MTA protein complex, resulting in an increase in the protein melting temperature. 2. Experimental instruments: Quantitative PCR instrument (Quantstudio6 Flex) was purchased from Life Technologies; pipettes were purchased from Eppendorf or Rainin. 3. Experimental reagents and consumables: PRMT5/MEP50 protein was prepared by Viva Biotech; HEPES was purchased from Thermo Fisher Scientific (Cat. No. 15630080); DTT was purchased from Sigma (Cat. No. 43816-10ml); sodium chloride was purchased from Invitrogen (Cat. No. AM9760G); Protein Thermal Shift™ Dye Kit was purchased from Thermo Fisher Scientific (Cat. No. 4461146); methylthioadenosine (MTA) was purchased from Sigma (Cat. No. D5011). 4. Experimental methods: In this experiment, the thermal shift method was used to measure the change in the melting temperature (Tm) of the PRMT5/MEP50-MTA protein complex before and after compound binding, thereby characterising the ability of the compound to improve the thermal stability of the PRMT5/MEP50-MTA protein complex. A solution containing 50 mM HEPES, 10 mM DTT, 2 µM MTA, SYPRO Orange and 250 mM NaCl was prepared as the experimental buffer. Human PRMT5/MEP50 protein was added to a final concentration of 2 µM, and the mixture was incubated at room temperature for 30 minutes. The above reaction mixture was aliquoted into 8-strip PCR tubes at 19.5 µL per tube. Then 0.5 µL of test compound or DMSO was added to each tube, providing a total reaction volume of 20 µL and a final compound concentration of 8 µM. 2.5% DMSO was set as the vehicle control. After incubation at room temperature for 10 minutes, the PCR tubes were placed in a PCR instrument, and the melt curve function was selected to measure the melting temperature of the PRMT5/MEP50-MTA protein complex in different treatment groups (heated from 25°C to 95°C, 0.03°C/s). 5. Experimental data processing method: The experimental data files from the PCR instrument were imported into the thermal shift software to obtain the melting temperature (Tm) for each treatment group.
# [4] = Pharmacokinetics in rats (plasma) after oral administration; settings: male, SD, rat, 5 mg/kg
# T1 sequence (O14744 whole entry): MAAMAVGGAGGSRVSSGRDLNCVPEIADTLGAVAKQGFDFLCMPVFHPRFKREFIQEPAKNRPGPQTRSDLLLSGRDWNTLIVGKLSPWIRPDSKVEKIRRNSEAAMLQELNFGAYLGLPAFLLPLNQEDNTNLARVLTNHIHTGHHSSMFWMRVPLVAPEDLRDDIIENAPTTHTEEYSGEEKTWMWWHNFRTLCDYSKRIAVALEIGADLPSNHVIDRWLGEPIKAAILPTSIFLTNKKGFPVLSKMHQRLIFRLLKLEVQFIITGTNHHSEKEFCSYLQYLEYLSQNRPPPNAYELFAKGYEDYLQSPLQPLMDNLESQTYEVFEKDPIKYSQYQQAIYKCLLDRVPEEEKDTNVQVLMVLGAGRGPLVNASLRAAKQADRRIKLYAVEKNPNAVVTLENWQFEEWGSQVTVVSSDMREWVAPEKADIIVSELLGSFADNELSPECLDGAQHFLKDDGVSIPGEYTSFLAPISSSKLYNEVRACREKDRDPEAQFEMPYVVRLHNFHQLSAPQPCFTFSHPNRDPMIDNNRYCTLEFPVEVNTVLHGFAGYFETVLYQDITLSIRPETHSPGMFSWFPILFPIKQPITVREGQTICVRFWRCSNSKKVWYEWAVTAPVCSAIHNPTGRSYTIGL
# T1 sequence (Q9BQA1 whole entry partner): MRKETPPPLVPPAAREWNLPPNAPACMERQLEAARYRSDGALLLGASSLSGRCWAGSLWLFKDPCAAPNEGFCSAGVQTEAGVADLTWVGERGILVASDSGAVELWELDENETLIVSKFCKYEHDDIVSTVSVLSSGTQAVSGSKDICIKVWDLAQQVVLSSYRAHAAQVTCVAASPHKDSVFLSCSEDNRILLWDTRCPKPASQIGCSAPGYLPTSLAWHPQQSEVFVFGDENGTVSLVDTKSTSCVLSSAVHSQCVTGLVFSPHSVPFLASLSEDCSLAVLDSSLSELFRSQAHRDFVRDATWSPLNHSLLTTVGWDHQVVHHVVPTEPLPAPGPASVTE
compound,measurement,setting,value
"CNN(C(=O)c1ccc2nc(N)c3cnn(C)c3c2c1)C1COCc2nc(C(F)(F)F)ccc21 (racemic) [Example 301, 4-Amino-N',1-dimethyl-N-[2-(trifluoromethyl)-6,8-dihydro-5H-pyrano[3,4-b]pyridin-5-yl]pyrazolo[4,3-c]quinoline-8-hydrazide]",Selectivity,[1],94
same,pIC50,[1],7.85
same,pIC50,[2],5.87
same,ΔTm at 8 µM,[3],11.6 °C
"CNN(C(=O)c1cc2c(cc1C)nc(N)c1cnn(C)c12)C1COc2cc(S(F)(F)(F)(F)F)ccc21 (stereo not shown) [Example 451, 4-Amino-N',1,7-trimethyl-N-(6-(pentafluorosulphanyl)-2,3-dihydrobenzofuran-3-yl)-1H-pyrazolo[4,3-c]quinoline-8carbohydrazide]",Selectivity,[1],21
same,pIC50,[1],8.38
same,pIC50,[2],7.05
same,ΔTm at 8 µM,[3],13.7 °C
"CNN(C(=O)c1cc2c(cc1F)nc(N)c1cncn12)C1COCc2nc(C(F)(F)F)ccc21 (stereo not shown) [Example 279, 4-Amino-7-fluoro-N'-methyl-N-[2-(trifluoromethyl)-6,8-dihydro-5H-pyrano[3,4-b]pyridin-5-yl]imidazo[1,5-a]quinoxaline-8-hydrazide]",ΔTm at 8 µM,[3],12.2 °C
same,AUC(0-inf),[4],729 ng·h/mL
same,Cmax,[4],233 ng/mL
same,MRT inf,[4],2.1 h
same,Tmax,[4],0.5 h
same,half-life,[4],1 h
"[2H]C([2H])([2H])NN(C(=O)c1ccc2nc(N)c3cnn(C)c3c2c1)C1([2H])COCc2nc(C(F)(F)F)ccc21 (stereo not shown) [Example 324, 4-Amino-N-[5-deuterio-2-(trifluoromethyl)-6,8-dihydropyrano[3,4-b]pyridin-5-yl]-1-methyl-N'-(trideuteriomethyl)pyrazolo[4,3-c]quinoline-8-hydrazide]",Selectivity,[1],155
same,pIC50,[1],7.82
same,pIC50,[2],5.62
same,ΔTm at 8 µM,[3],11.1 °C
"CNN(C(=O)c1cc2c(cc1F)nc(N)c1cncn12)C1COCc2c1ccn1c(C(F)(F)F)cnc21 (stereo not shown) [Example 282, 4-Amino-7-fluoro-N'-methyl-N-(3-(trifluoromethyl)-7,10-dihydro-8H-imidazo[1,2-a]pyrano[3,4-c]pyridin-7-yl)imidazo[1,5-a]quinoxaline-8-carbohydrazide]",Selectivity,[1],145
same,pIC50,[1],7.77
same,pIC50,[2],5.61
same,ΔTm at 8 µM,[3],12.3 °C
"Cc1cc2nc(N)c3cncn3c2cc1C(=O)N(C)[C@@H]1COCc2c1ccn1c(C(F)(F)F)cnc21 [Example 62-P1, (S)-4-amino-N,7-dimethyl-N-(3-(trifluoromethyl)-7,10-dihydro-8H-imidazo[1,2-a]pyrano[3,4-c]pyridin-7-yl)imidazo[1,5-a]quinoxaline-8-carboxamide]",ΔTm at 8 µM,[3],12.5 °C
same,AUC(0-inf),[4],1360 ng·h/mL
same,Cmax,[4],441 ng/mL
same,MRT inf,[4],4 h
same,Tmax,[4],0.5 h
same,half-life,[4],4.1 h
"Cc1cc2nc(N)c3cncn3c2cc1C(=O)N(C)C1COCc2c1ccn1c(C(F)(F)F)cnc21 (stereo not shown) [Example 62, 4-Amino-N,7-dimethyl-N-(3-(trifluoromethyl)-7,10-dihydro-8H-imidazo[1,2-a]pyrano[3,4-c]pyridin-7-yl)imidazo[1,5-a]quinoxaline-8-carboxamide]",Selectivity,[1],113
same,pIC50,[1],8.14
same,pIC50,[2],6.09
same,ΔTm at 8 µM,[3],12.5 °C
"CNN(C(=O)c1cc2c(cn1)nc(N)c1cnn(C)c12)C1COc2cc(S(F)(F)(F)(F)F)ccc21 (stereo not shown) [Example 375, 4-Amino-N',1-dimethyl-N-(6-(pentafluoro-6-sulphanyl)-2,3-dihydrobenzofuran-3-yl)-1H-pyrazolo[4,3-c][1,7]naphthyridine-8-carbohydrazide]",ΔTm at 8 µM,[3],12.7 °C
"[2H]C([2H])([2H])NN(C(=O)c1cc2c3c(c(N)nc2cc1Cl)COC3)C1COCc2c1ccn1c(C(F)(F)F)cnc21 (stereo not shown) [Example 394, 4-Amino-7-chloro-N'-(methyl-d3)-N-(3-(trifluoromethyl)-7,10-dihydro-8H-imidazo [1,2-a]pyrano [3,4-c]pyridin-7-yl)-1,3-dihydrofuro [3,4-c] quinoline-8-carbohydrazide]",ΔTm at 8 µM,[3],13.2 °C
"CNN(C(=O)c1cc2c(cc1C)nc(N)c1cncn12)[C@@H]1COCc2nc(C(F)(F)F)ccc21 [Example 278-P1, (S)-4-amino-N',7-dimethyl-N-(2-(trifluoromethyl)-5,8-dihydro-6H-pyrano[3,4-b]pyridin-5-yl)imidazo[1,5-a]quinoxaline-8-carbohydrazide]",ΔTm at 8 µM,[3],12.6 °C
"CN(C(=O)c1ccc2nc(N)c3cnn(C)c3c2c1)C1COCc2c1ccc1nc(C(F)(F)F)cn21 (stereo not shown) [Example 81, 4-Amino-N,1-dimethyl-N-(8-(trifluoromethyl)-3,4-dihydro-1H-imidazo[1,2-a]pyrano[4,3-e]pyridin-4-yl)-1H-pyrazolo[4,3-c]quinoline-8-carboxamide]",ΔTm at 8 µM,[3],10.4 °C
"[2H]C([2H])([2H])NN(C(=O)c1cc2c3c(c(N)nc2cc1F)COC3)C1COCc2c1ccn1c(C(F)(F)F)cnc21 (stereo not shown) [Example 351, 4-Amino-7-fluoro-N'-(trideuteriomethyl)-N-(3-trifluoromethyl-7,10-dihydro-8H-imidazo [1,2-a]pyrano [3,4-c]pyridin-7-yl)-1,3-dihydrofuro [3,4-c] quinoline-8-carbohydrazide]",ΔTm at 8 µM,[3],12.6 °C
same,AUC(0-inf),[4],9660 ng·h/mL
same,Cmax,[4],2330 ng/mL
same,MRT inf,[4],3.3 h
same,Tmax,[4],0.5 h
same,half-life,[4],2.3 h
"CNN(C(=O)c1cc2c3c(c(N)nc2cn1)COC3)C1COCc2nc(C(F)(F)F)ccc21 (stereo not shown) [Example 286, 4-Amino-N'-methyl-N-(2-trifluoromethyl-5,8-dihydro-6H-pyrano[3,4-b]pyridin-5-yl)-1,3-dihydrofuro[3,4-c] [1,7]naphthyridine-8-carbohydrazide]",ΔTm at 8 µM,[3],10.5 °C
"[2H]C([2H])([2H])NN(C(=O)c1cc2c3c(c(N)nc2cn1)COC3)C1([2H])COCc2c1ccn1c(C(F)(F)F)cnc21 (stereo not shown) [Example 354, 4-Amino-N'-(methyl-d3)-N-(3-(trifluoromethyl)-7,10-dihydro-8H-imidazo[1,2-a]pyrano[3,4-c]pyridin-7-yl-7-d)-1,3-dihydrofuro[3,4-c][1,7]naphthyridine-8-carbohydrazide]",ΔTm at 8 µM,[3],10.8 °C
"CNN(C(=O)c1cc2c(cc1C)nc(N)c1cncn12)C1COCc2nc(C(F)(F)F)ccc21 (stereo not shown) [Example 278, 4-Amino-N',7-dimethyl-N-(2-(trifluoromethyl)-5,8-dihydro-6H-pyrano[3,4-b]pyridin-5-yl)imidazo[1,5-a]quinoxaline-8-carbohydrazide]",ΔTm at 8 µM,[3],12.7 °C
"Nc1nc2cc(F)c(C(=O)N(N)C3COCc4nc(C(F)(F)F)ccc43)cc2n2cncc12 (stereo not shown) [Example 280, 4-Amino-7-fluoro-N-(2-(trifluoromethyl)-5,8-dihydro-6H-pyrano[3,4-b]pyridin-5-yl)imidazo[1,5-a]quinoxaline-8-carbohydrazide]",ΔTm at 8 µM,[3],10.9 °C
